Measurements from patent US6673772B2, “Dipeptide compounds and their use as antiviral agents” (Sumitomo Pharmaceuticals Company Limited, priority 2000, dated 2004).

Tested on: human plasma
Test: Protein binding to human plasma (ultrafiltration, unbound ratio)
Assay type: in vitro ADME
Details: concentration 1 μM; from regression line of FIG. 1; 18 hours at 37° C.
Experimental: Measurement of protein binding rate […] Freezed human plasma (HFFPP100) was used after thawing. Powder of human alpha 1-acid glycoprotein (supplied by SIGMA Co., hereinafter abbreviated to AAG) was dissolved in a phosphate buffer solution (PBS, pH 7.0) to a concentration of 1 mg/ml. […] Quantitative determination of unbound drug concentration […] All amount of the solution was transferred to Micropartition Devices (Centrifree®, Millipore Co.) and filtered by centrifugation at 1500 ×g for 20 minutes (using TOMY CX-210 high-speed cooling centrifugal machine). 200 μl of the filtrate was directly subjected to HPLC (Type: HITACHI D-7000, column: COSMOSIL (4.6* 250 mm, manufactured by Nacalai Tesque Co., Ltd.). The HPLC analysis was carried out by using a 59:41 (v/v) water-acetonitrile mixture containing 0.1% trifluoroacetic acid (TFA) as a mobile phase and measuring absorbance at 210 nm. The quantitative determination of unbound drug concentration was carried out based on the absolute calibration curve method using a calibration line obtained from the analysis of a standard sample which contains the drug at a known concentration. Analysis of protein binding properties A commonly accepted method (see Y. Odagiri et al., Protein Binding Experimental Method (1991), Hirokawa Publishing Co., Ltd.) was employed for the analysis of protein binding properties. […]
With `COc1ccc(C[C@H](NC(=O)c2cccc(O)c2C)[C@H](O)C(=O)N2CSC(C)(C)[C@H]2C(=O)NCc2ccccc2C)cc1` [Ex. 1, (R)-N-(2-methylbenzyl)-3-[(2S,3S)-2-hydroxy-3-(3-hydroxy-2-methylbenzoyl)amino-4-(4-methoxyphenyl)butanoyl]-5,5-dimethyl-1,3-thiazolidine-4-carboxamide] the “ratio of unbound drug (human plasma)” value was 0.029.

Tested on: not listed separately
Test: Plasma concentration after intraduodenal administration to rats
Assay type: in vivo
Details: Sprague-Dawley, other: into the duodenum, rat, 10 mg/kg into the duodenum, 30 minutes after the administration
Experimental: A pharmacological experiment of the compound of the present invention was carried out using Sprague-Dawley rats (300-400 g). 10 mg/kg of a 50% polyethylene glycol (PEG) solution (1 ml/kg) was administered into the duodenum under anesthesia and blood was collected over time. After the addition of a solvent, the collected blood plasma sample was shaken and centrifuged. The organic layer was concentrated and dissolved in 50% methanol. The sample thus obtained was analyzed by HPLC for the determination of concentration of the compound in plasma. The HPLC analysis was carried out using Capecellpak C18 (4.6×150 mm, Shiseido LTD) as a column and a mixed solvent of 0.1% TFA aqueous solution and acetonitrile as an eluent (see T. Mimoto et al. J. Med. Chem., 42, 1789-1802, 1999).
The compound of the present invention was confirmed to have pharmacological characteristics expected as an in vivo effect of the compound. For instance, when the compound of Example 1 of the present invention is administered to a rat at a dose of 10 mg/kg into the duodenum, the compound is detected in plasma of the rat at a concentration of 0.42 μg/ml 30 minutes after the administration.
`COc1ccc(C[C@H](NC(=O)c2cccc(O)c2C)[C@H](O)C(=O)N2CSC(C)(C)[C@H]2C(=O)NCc2ccccc2C)cc1` [Ex. 1, (R)-N-(2-methylbenzyl)-3-[(2S,3S)-2-hydroxy-3-(3-hydroxy-2-methylbenzoyl)amino-4-(4-methoxyphenyl)butanoyl]-5,5-dimethyl-1,3-thiazolidine-4-carboxamide] gave a concentration at 30 min of 420 ng/mL.

Tested on: HIV virus (HIV-1 IIIB strain)
Test: Measurement of anti-HIV activity (cytopathic effect, XTT) in CEM-SS cells
Assay type: cell-based
Details: 6 days, in the presence of 50% human plasma
Experimental: Measurement of anti-HIV activity
The anti-HIV activity of the compounds synthesized Examples 1-15 and Reference Examples 1-4 was measured according to the method reported by 0. S. Weislow et al. (J. Natl. Cancer Inst. 81, 577-586, 1989) using CEM-SS cells as host cells and HIV virus (HIV-1 IIIB strain)(see T. Mimoto et al., J. Med. Chem., 42, 1789-1802, 1999, etc.).
Specifically, the compounds synthesized Examples 1-15 and […] in various concentrations were added to a culture medium on 96-well microtiter plates. Human blood serum was added to a final concentration of 50%, then HIV infected CEM-SS cells was added, followed by incubation in a CO2 atmosphere at 37° C. for 6 days. The cytopathic effect induced by HIV-1 IIIB was measured by tetrazolium dye XTT dyeing method to evaluate the 50% inhibitory concentration (IC50).
With `Cc1ccc(C[C@H](NC(=O)c2cccc(O)c2C)[C@H](O)C(=O)N2CSC(C)(C)[C@H]2C(=O)NCc2ccccc2C)cc1` [Ex. 9, (R)-N-(2-methylbenzyl)-3-[(2S,3S)-2-hydroxy-3-(3-hydroxy-2-methylbenzoyl)amino-4-(4-metylphenyl)butanoyl]-5,5-dimethyl-1,3-thiazolidine-4-carboxamide] the “Anti-HIV IC50” value was 0.02 µg/mL.

Biological target: T1, recombinant HIV-1 protease (Human immunodeficiency virus type 1 group M subtype B, UniProt P04585)
T1 construct: 10.5 nM HIV-1 protease
Test: Measurement of HIV protease inhibitory activity
Assay type: biochemical
Details: 50 nM compound; 10.5 nM HIV-1 protease, pH 6.5, 37° C., 60 minutes
Experimental: Measurement of HIV protease inhibitory activity
The protease inhibitory activity was measured according to the method reported by T. Mimoto et al., J. Med. Chem., 42, 1789-1802 (1999) by using a recombinant HIV-1 protease (see Biochemistry, 250, 9, 264 (1990)) and a synthesized peptide substrate (H-Ser-Gln-Asn-Tyr-Pro-Ile-Val-OH). Specifically, reaction solutions (15 μl each) containing any one of the compounds synthesized in the above Examples 1-15 and Reference Examples 1-4, an inhibitor in which a known anti-AIDS agent (nelfinavir) is dissolved in DMSO in different concentrations, 10.5 nM HIV-1 protease, 20 mM synthesized peptide substrate, and 100 mM MES buffer solution (pH 6.5) were incubated at 37° C. for 60 minutes. Peptide fragments produced by cleaving the Tyr-Pro bonds in the synthesized peptide substrate was quantitatively measured by reverse phase HPLC.
With `Cc1ccc(C[C@H](NC(=O)c2cccc(O)c2C)[C@H](O)C(=O)N2CSC(C)(C)[C@H]2C(=O)NCc2ccccc2C)cc1` [Ex. 9, (R)-N-(2-methylbenzyl)-3-[(2S,3S)-2-hydroxy-3-(3-hydroxy-2-methylbenzoyl)amino-4-(4-metylphenyl)butanoyl]-5,5-dimethyl-1,3-thiazolidine-4-carboxamide] the “HIV protease inhibition rate (%) at 50 nM” value was 97%.

Same assay, conditions: 50 nM compound; 10.5 nM HIV-1 protease, pH 6.5, 37° C., 60 minutes; read-out: HIV protease inhibition rate (%) at 50 nM
For `COc1ccc(C[C@H](NC(=O)c2cccc(O)c2C)[C@H](O)C(=O)N2CSC(C)(C)[C@H]2C(=O)NCc2ccccc2C)cc1` [Ex. 1, (R)-N-(2-methylbenzyl)-3-[(2S,3S)-2-hydroxy-3-(3-hydroxy-2-methylbenzoyl)amino-4-(4-methoxyphenyl)butanoyl]-5,5-dimethyl-1,3-thiazolidine-4-carboxamide], the inhibition at 0.05 µM was 95%.
Work on `COc1ccc(C[C@H](NC(=O)c2cccc(O)c2C)[C@H](O)C(=O)N2CSC(C)(C)[C@H]2C(=O)NCc2cc(F)ccc2C)cc1` [Ex. 2, (R)-N-(5-fluoro-2-methylbenzyl)-3-[(2S,3S)-2-hydroxy-3-(3-hydroxy-2-methyl-benzoyl)amino-4-(4-methoxyphenyl)butanoyl]-5,5-dimethyl-1,3-thiazolidine-4-carboxamide] yielded an inhibition at 0.05 µM of 97%.
In the case of `COc1ccc(C[C@H](NC(=O)c2ccc(F)c(O)c2C)[C@H](O)C(=O)N2CSC(C)(C)[C@H]2C(=O)NCc2ccccc2C)cc1` [Ex. 3, (R)-N-(2-methylbenzyl)-3-[(2S,3S)-2-hydroxy-3-(4-fluoro-3-hydroxy-2-methyl-benzoyl)amino-4-(4-methoxyphenyl)butanoyl]5,5-dimethyl-1,3-thiazolidine-4-carboxamide], the inhibition at 0.05 µM is reported as 93%.
With `COc1ccc(C[C@H](NC(=O)c2cccc(N)c2Cl)[C@H](O)C(=O)N2CSC(C)(C)[C@H]2C(=O)NCc2ccccc2C)cc1` [Ex. 4, (R)-N-(2-methylbenzyl)-3-[(2S,3S)-2-hydroxy-3-(3-amino-2-chlorobenzoyl)amino-4-(4-methoxyphenyl)butanoyl]-5,5-dimethyl-1,3-thiazolidine-4-carboxamide] the inhibition at 0.05 µM was 91%.
For `CCOc1ccc(C[C@H](NC(=O)c2cccc(O)c2C)[C@H](O)C(=O)N2CSC(C)(C)[C@H]2C(=O)NCc2ccccc2C)cc1` [Ex. 5, (R)-N-(2-methylbenzyl)-3-[(2S,3S)-2-hydroxy-3-(3-hydroxy-2-methylbenzoyl)amino-4-(4-ethoxyphenyl)butanoyl]-5,5-dimethyl-1,3-thiazolidine-4-carboxamide], the inhibition at 0.05 µM was 95%.
In the case of `Cc1ccccc1CNC(=O)[C@H]1N(C(=O)[C@@H](O)[C@H](Cc2ccc3c(c2)OCO3)NC(=O)c2cccc(O)c2C)CSC1(C)C` [Ex. 6, (R)-N-(2-methylbenzyl)-3-[(2S,3S)-2-hydroxy-3-(3-hydroxy-2-methylbenzoyl)amino-4-(3,4-methylenedioxyphenyl)butanoyl]-5,5-dimethyl-1,3-thiazolidine-4-carboxamide], the inhibition at 0.05 µM is reported as 97%.
For `CCCOc1ccc(C[C@H](NC(=O)c2cccc(O)c2C)[C@H](O)C(=O)N2CSC(C)(C)[C@H]2C(=O)NCc2ccccc2C)cc1` [Ex. 7, (R)-N-(2-methylbenzyl)-3-[(2S,3S)-2-hydroxy-3-(3-hydroxy-2-methylbenzoyl)amino-4-(4-n-propoxyphenyl)butanoyl]-5,5-dimethyl-1,3-thiazolidine-4-carboxamide], the inhibition at 0.05 µM was 97%.
For `Cc1ccccc1CNC(=O)[C@H]1N(C(=O)[C@@H](O)[C@H](Cc2ccc(OC(C)C)cc2)NC(=O)c2cccc(O)c2C)CSC1(C)C` [Ex. 8, (R)-N-(2-methylbenzyl)-3-[(2S,3S)-2-hydroxy-3-(3-hydroxy-2-methylbenzoyl)amino-4-(4-isopropoxyphenyl)butanoyl]-5,5-dimethyl-1,3-thiazolidine-4-carboxamide], the inhibition at 0.05 µM was 96%.
`Cc1ccccc1CNC(=O)[C@H]1N(C(=O)[C@@H](O)[C@H](Cc2ccc(C(C)C)cc2)NC(=O)c2cccc(O)c2C)CSC1(C)C` [Ex. 10, (R)-N-(2-methylbenzyl)-3-[(2S,3S)-2-hydroxy-3-(3-hydroxy-2-methylbenzoyl)amino-4-(4-isopropylphenyl)butanoyl]-5,5-dimethyl-1,3-thiazolidine-4-carboxamide] gave an inhibition at 0.05 µM of 96%.
`Cc1ccccc1CNC(=O)[C@H]1N(C(=O)[C@@H](O)[C@H](Cc2ccc(Cl)cc2)NC(=O)c2cccc(O)c2C)CSC1(C)C` [Ex. 11, (R)-N-(2-methylbenzyl)-3-[(2S,3S)-2-hydroxy-3-(3-hydroxy-2-methylbenzoyl)amino-4-(4-chlorophenyl)butanoyl]-5,5-dimethyl-1,3-thiazolidine-4-carboxamide] gave an inhibition at 0.05 µM of 97%.
In the case of `CCOc1ccc(C[C@H](NC(=O)c2cccc(N)c2Cl)[C@H](O)C(=O)N2CSC(C)(C)[C@H]2C(=O)NCc2ccccc2C)cc1` [Ex. 12, (R)-N-(2-methylbenzyl)-3-[(2S,3S)-2-hydroxy-3-(3-amino-2-chlorobenzoyl)amino-4-(4-ethoxyphenyl)butanoyl]-5,5-dimethyl-1,3-thiazolidine-4-carboxamide], the inhibition at 0.05 µM is reported as 89%.
In the case of `Cc1ccccc1CNC(=O)[C@H]1N(C(=O)[C@@H](O)[C@H](Cc2ccc3c(c2)OCO3)NC(=O)c2cccc(N)c2Cl)CSC1(C)C` [Ex. 13, (R)-N-(2-methylbenzyl)-3-[(2S,3S)-2-hydroxy-3-(3-amino-2-chlorobenzoyl)amino-4-(3,4-methylenedioxyphenyl)butanoyl]-5,5-dimethyl-1,3-thiazolidine-4-carboxamide], the inhibition at 0.05 µM is reported as 95%.
`COc1ccc(C[C@H](NC(=O)c2cccc(N)c2Cl)[C@H](O)C(=O)N2CSC(C)(C)[C@H]2C(=O)NCc2c(C)cccc2C)cc1` [Ex. 14, (R)-N-(2,6-dimethylbenzyl)-3-[(2S,3S)-2-hydroxy-3-(3-amino-2-chlorobenzoyl)amino-4-(4-methoxyphenyl)butanoyl]-5,5-dimethyl-1,3-thiazolidine-4-carboxamide] showed an inhibition at 0.05 µM of 92%.
For `Cc1cccc(C)c1CNC(=O)[C@H]1N(C(=O)[C@@H](O)[C@H](Cc2ccc3c(c2)OCO3)NC(=O)c2cccc(N)c2Cl)CSC1(C)C` [Ex. 15, (R)-N-(2,6-dimethylbenzyl)-3-[(2S,3S)-2-hydroxy-3-(3-amino-2-chlorobenzoyl)amino-4-(3,4-methylenedioxyphenyl)butanoyl]-5,5-dimethyl-1,3-thiazolidine-4-carboxamide], the inhibition at 0.05 µM was 96%.
In the case of `Cc1c(O)cccc1C(=O)N[C@@H](CSc1ccccc1)[C@H](O)CN1C[C@H]2CCCC[C@H]2C[C@H]1C(=O)NC(C)(C)C` [Re. 5, nelfinavir, reference compound], the inhibition at 0.05 µM is reported as 93%.
